The record followed here is US9890166B2, “Imidazopyrrolidine derivatives and their use in the treatment of disease” (NOVARTIS AG, priority 2013, dated 2018).

As a reminder, the GI50 is the concentration that inhibits growth by half. In general, IC50 refers to the concentration that gives 50% inhibition.

The subject of assay [1] is THP-1 cells. The assay is described as follows: Cell growth inhibition assay (CellTiter-Glo), THP-1.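 On all read-outs here: viability read as cellular ATP luminescence after 4 days, 3-fold dilution series from 10 µM, DMSO vehicle-treated cells taken as 100%, cell-free medium wells as −100%.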 The conditions noted are these: for GI50: Homo sapiens, THP-1, read-out: THP-1 GI50; for THP-1 TGI: THP-1 cells, total growth inhibition, CellTiter-Glo.
The target in assay [2] is BRD3 (His-Brd3(20-477)) (Homo sapiens (Human), UniProt Q15059). The assay is described as follows: TR-FRET in-vitro binding assay for BRD3. The conditions noted are these: single determination or n ≧ 2 independent determinations, read-out: Biochemical IC50 BRD3. Here is the method:
(§1) TR-FRET In-Vitro Binding Assays for BRD2, BRD3, and BRD4:
(§2) All assays were performed in 384 well microtiter plates. Each assay plate contained 8-point serial dilutions for 40 test compounds, plus 16 high- and 16 low controls. Liquid handling and incubation steps were done on an Innovadyne Nanodrop Express equipped with a robotic arm (Thermo CatX, Perkin Elmer/Caliper Twister II) and an incubator (Liconic STX40, Thermo Cytomat 2C450). The assay plates were prepared by addition of 50 nl per well of compound solution in 90% DMSO HummingBird nanodispenser (Zinsser Analytic). […] Reactions were incubated at 30° C. for 35 minutes. […] After 35 minutes incubation at 30° C., plates were measured in a Perkin Elmer EnVision multilabel reader.
(§3) Preparation of Compound Dilutions
(§4) Test compounds were dissolved in DMSO (10 mM) and transferred into 1.4 mL flat bottom or V-shaped Matrix tubes carrying a unique 2D matrix. The stock solutions were stored at […] if not used immediately. For the test procedure the vials were defrosted and identified by a scanner whereby a working sheet was generated that guided the subsequent working steps.
(§5) Compound dilutions were made in 96 well plates. This format enabled the assay of maximally 40 individual test compounds at 8 concentrations (single points) including 4 reference compounds, if desired (known BET inhibitors from the prior art, for this and other assays of the type disclosed herein). The dilution protocol included the production of “pre-dilution plates”, “master plates” and “assay plates”.
(§6) Pre-Dilution Plates: 96 polypropylene well plates were used as pre-dilution plates. A total of 4 pre-dilution plates were prepared including 10 test compounds each on the plate positions A1-A10, one standard compound at A11 and one DMSO control at A12. All dilution steps were done on a HamiltonSTAR robot.
(§7) These plates were used directly for the assay which was performed in a total volume of 13.55 μL.

Assay [3] relates to K-562 cells. As to the kind of experiment: Cell growth inhibition assay (CellTiter-Glo), K-562.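 On all read-outs here: cellular ATP measured by luminescence after 4 days of exposure, 3-fold dilution series from 10 µM, DMSO vehicle-treated cells define 100%, cell-free medium wells −100%.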 The conditions noted are these: for GI50: Homo sapiens, K562, read-out: K-562 GI50; for K-562 TGI: K-562 cells, total growth inhibition, CellTiter-Glo.
Assay [4] addresses BRD2 (His-Brd2(60-472)) (Homo sapiens (Human), UniProt P25440). The assay is described as follows: TR-FRET in-vitro binding assay for BRD2. The settings on record: single determination or n ≧ 2 independent determinations, read-out: Biochemical IC50 BRD2. Here is the method:
as §1, §2, §3, §4, §5, §6, §7

The subject of assay [5] is MV-4-11 cells. As to the kind of experiment: Cell growth inhibition assay (CellTiter-Glo), MV-4-11.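 On all read-outs here: cellular ATP luminescence after 4 days, 3-fold dilution series from 10 µM top dose, vehicle (0.1% DMSO) set to 100%, cell-free medium set to −100%, day 0 corrected.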 The settings on record: for GI50: Homo sapiens, MV4-11, read-out: MV-4-11 GI50; for MV-4-11 TGI: MV-4-11 cells, total growth inhibition, CellTiter-Glo. A general note: Cellular ATP, detected with luciferase, serves as a proxy for viable cell number.
Assay [6] has as its target BRD4 (His-Brd4(44-477)) (Homo sapiens (Human), UniProt O60885). As to the kind of experiment: TR-FRET in-vitro binding assay for BRD4. The settings on record: single determination or n ≧ 2 independent determinations, read-out: Biochemical IC50 BRD4. Here is the method:
as §1, §2, §3, §4, §5, §6, §7

Assay [7] concerns the target CREBBP bromodomain (His-CREBBP(1081-1197)) (Homo sapiens (Human), UniProt Q92793). The assay is described as follows: AlphaScreen in-vitro binding assay for CREBBP. The conditions noted are these: single determination or n ≧ 2 independent determinations, read-out: Biochemical IC50 CREBBP. Here is the method:
AlphaScreen In-Vitro Binding Assay for CREBBP
In order to assess bromodomain selectivity, we set up a binding assay using the bromodomain encoded by the CREBBP gene. […] Reactions were incubated at 30° C. for 35 minutes. Subsequently 4.5 μl per well detection mix (50 mM HEPES, pH 7.5, 0.005% Tween20, 0.02% BSA, 150 mM NaCl, 45 μg/ml Ni-chelate acceptor beads, 45 μg/mIstreptavidin-donor beads) (Perkin Elmer)) were added. After 60 minutes incubation at room temperature, plates were measured in a Perkin Elmer EnVision multilabel reader. IC50 values were determined from percent inhibition values at different compound concentrations by non-linear regression analysis.
as §3, §4, §5, §6, §7
(Bead proximity is the source of the signal in Alpha formats.)

BRD3 (His-Brd3(20-477)), sequence (Q15059 20-477): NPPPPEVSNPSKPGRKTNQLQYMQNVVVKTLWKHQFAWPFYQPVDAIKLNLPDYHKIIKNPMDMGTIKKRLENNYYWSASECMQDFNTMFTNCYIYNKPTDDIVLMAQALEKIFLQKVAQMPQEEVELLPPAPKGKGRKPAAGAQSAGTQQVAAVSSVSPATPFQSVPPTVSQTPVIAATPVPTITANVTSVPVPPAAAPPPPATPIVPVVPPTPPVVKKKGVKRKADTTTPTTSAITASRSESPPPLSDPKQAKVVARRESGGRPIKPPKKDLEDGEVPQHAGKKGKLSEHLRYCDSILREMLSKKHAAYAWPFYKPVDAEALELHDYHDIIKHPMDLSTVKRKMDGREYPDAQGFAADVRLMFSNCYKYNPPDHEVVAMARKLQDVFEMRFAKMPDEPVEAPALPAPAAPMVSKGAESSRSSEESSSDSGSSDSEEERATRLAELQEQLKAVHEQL
BRD2 (His-Brd2(60-472)), sequence (P25440 60-472): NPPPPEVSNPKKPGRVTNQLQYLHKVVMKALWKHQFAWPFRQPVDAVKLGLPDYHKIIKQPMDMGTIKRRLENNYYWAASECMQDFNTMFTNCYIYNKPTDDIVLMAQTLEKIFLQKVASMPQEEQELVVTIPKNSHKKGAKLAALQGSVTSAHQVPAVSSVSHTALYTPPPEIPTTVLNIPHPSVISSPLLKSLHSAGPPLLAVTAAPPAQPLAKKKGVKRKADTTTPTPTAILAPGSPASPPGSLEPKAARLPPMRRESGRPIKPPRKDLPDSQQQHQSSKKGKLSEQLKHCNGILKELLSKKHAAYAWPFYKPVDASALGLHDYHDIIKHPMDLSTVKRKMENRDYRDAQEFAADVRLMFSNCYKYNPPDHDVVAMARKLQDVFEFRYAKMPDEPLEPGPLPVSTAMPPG
CREBBP bromodomain (His-CREBBP(1081-1197)), sequence (Q92793 1081-1197): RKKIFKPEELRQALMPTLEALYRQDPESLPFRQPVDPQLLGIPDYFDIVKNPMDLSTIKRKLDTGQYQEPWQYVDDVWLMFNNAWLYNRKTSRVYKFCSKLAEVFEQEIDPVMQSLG

`COc1ncccc1-c1nc2c(n1C(C)C)C(c1ccc(Cl)cc1)N(c1cc(C)c3nnn(C)c3c1)C2=O` (racemic) [Example 77, 6-(4-chlorophenyl)-5-(1,4-dimethyl-1H-benzo[d][1,2,3]triazol-6-yl)-1-isopropyl-2-(2-methoxypyridin-3-yl)-5,6-dihydropyrrolo[3,4-d]imidazol-4(1H)-one]: the concentration for 50% growth inhibition (GI50) in assay [1] was 7.94 nM; in assay [3], 21.5 nM; in assay [5], 4.93 nM. Moreover, in assay [1], the “THP-1 TGI” value turned out to be 21.7 nM. Moreover, the figures for the IC50 in assay [2], in assay [4] and in assay [6] were 39 nM, 52 nM and less than 24 nM, respectively. Besides, the “K-562 TGI” value in assay [3] is greater than 10000 nM. Further, in assay [5], the “MV-4-11 TGI” value is 9.36 nM.
As to `CC(C)n1c(-c2ccccn2)nc2c1C(c1ccc(Cl)cc1)N(c1ccc(=O)n(C)c1)C2=O` (stereo not shown) [Example 20, 6-(4-chlorophenyl)-1-isopropyl-5-(1-methyl-6-oxo-1,6-dihydropyridin-3-yl)-2-(Pyridin-2-yl)-5,6-dihydropyrrolo[3,4-d]imidazol-4(1H)-one], the IC50 in assay [2] came to 610 nM; in assay [4], 710 nM; in assay [7] it was 24600 nM; in assay [6], 630 nM.
`CC(C)n1c(-c2ccnn2C)nc2c1C(c1ccc(Cl)cc1)N(c1ccc(=O)n(C)c1)C2=O` (stereo not shown) [Example 21, 6-(4-chlorophenyl)-1-isopropyl-2-(1-methyl-1H-pyrazol-5-yl)-5-(1-methyl-6-oxo-1,6-dihydropyridin-3-yl)-5,6-dihydropyrrolo[3,4-d]imidazol-4(1H)-one]: the IC50 in assay [2] was 840 nM; in assay [4], 1100 nM; in assay [7], 34800 nM; in assay [6], 772 nM.
Consider `CC(C)n1c(-c2ccn(C)n2)nc2c1C(c1ccc(Cl)cc1)N(c1ccc(=O)n(C)c1)C2=O` (stereo not shown) [Example 22, 6-(4-chlorophenyl)-1-isopropyl-2-(1-methyl-1H-pyrazol-3-yl)-5-(1-methyl-6-oxo-1,6-dihydropyridin-3-yl)-5,6-dihydropyrrolo[3,4-d]imidazol-4(1H)-one], for which the IC50 in assay [2] is 603 nM; in assay [4], 607 nM; in assay [7], greater than 37000 nM; in assay [6], 495 nM.
For the compound `Cc1cc(N2C(=O)c3nc(-c4nccs4)n(C(C)C)c3C2c2ccc(Cl)cc2)cn(C)c1=O` (stereo not shown) [Example 23, 6-(4-chlorophenyl)-5-(1,5-dimethyl-6-oxo-1,6-dihydropyridin-3-yl)-1-isopropyl-2-(thiazol-2-yl)-5,6-dihydropyrrolo[3,4-d]imidazol-4(1H)-one], the results for the GI50 in assay [1], in assay [3] and in assay [5] were 158 nM, 381 nM and 87.5 nM, respectively. In assay [1], the “THP-1 TGI” value turned out to be 311 nM. Also, the figures for the IC50 in assay [2], in assay [4] and in assay [6] were 68 nM, 55 nM and 52 nM, respectively. The “K-562 TGI” value in assay [3] was greater than 10000 nM. In assay [5], the “MV-4-11 TGI” value was 143 nM.
With `Cc1cc(N2C(=O)c3nc(-c4nccs4)n(C(C)C)c3[C@H]2c2ccc(Cl)cc2)cn(C)c1=O` [Example 24, (R)-6-(4-chlorophenyl)-5-(1,5-dimethyl-6-oxo-1,6-dihydropyridin-3-yl)-1-isopropyl-2-(thiazol-2-yl)-5,6-dihydropyrrolo[3,4-d]imidazol-4(1H)-one], the IC50 in assay [2] is 41.5 nM; in assay [4] it was 30 nM; in assay [7], 455 nM; in assay [6], 42.5 nM.
In the case of `Cc1nc(C)c(-c2nc3c(n2C(C)C)C(c2ccc(Cl)cc2)N(c2cc(C)c(=O)n(C)c2)C3=O)s1` (stereo not shown) [Example 25, 6-(4-chlorophenyl)-5-(1,5-dimethyl-6-oxo-1,6-dihydropyridin-3-yl)-2-(2,4-dimethylthiazol-5-yl)-1-isopropyl-5,6-dihydropyrrolo[3,4-d]imidazol-4(1H)-one], the figures for the GI50 in assay [1], in assay [3] and in assay [5] were 118 nM, 528 nM and 65.7 nM, respectively. Further, the “THP-1 TGI” value in assay [1] was determined as 209 nM. Besides, the IC50 in assay [2] was found to be 79 nM; in assay [4], 120 nM; in assay [6], 99 nM. Also, the “K-562 TGI” value in assay [3] is greater than 10000 nM. In assay [5], the “MV-4-11 TGI” value came out at 90.4 nM.
`Cc1ncc(-c2nc3c(n2C(C)C)C(c2ccc(Cl)cc2)N(c2cc(C)c(=O)n(C)c2)C3=O)s1` (stereo not shown) [Example 29, 6-(4-chlorophenyl)-5-(1,5-dimethyl-6-oxo-1,6-dihydropyridin-3-yl)-1-isopropyl-2-(2-methylthiazol-5-yl)-5,6-dihydropyrrolo[3,4-d]imidazol-4(1H)-one]: the IC50 was determined as 100 nM in assay [2], 81 nM in assay [4], 800 nM in assay [7] and 110 nM in assay [6].
Consider `Cc1cc(N2C(=O)c3nc(-c4ccc[nH]4)n(C(C)C)c3C2c2ccc(Cl)cc2)cn(C)c1=O` (stereo not shown) [Example 30, 6-(4-chlorophenyl)-5-(1,5-dimethyl-6-oxo-1,6-dihydropyridin-3-yl)-1-isopropyl-2-(1H-pyrrol-2-yl)-5,6-dihydropyrrolo[3,4-d]imidazol-4(1H)-one], for which the IC50 in assay [2] was determined as 100 nM; in assay [4] it was 92 nM; in assay [7], 1000 nM; in assay [6], 120 nM.
As to `Cc1cc(N2C(=O)c3nc(C4CCCC4)n(C(C)C)c3C2c2ccc(Cl)cc2)cn(C)c1=O` (stereo not shown) [Example 31, 6-(4-chlorophenyl)-2-cyclopentyl-5-(1,5-dimethyl-6-oxo-1,6-dihydropyridin-3-yl)-1-isopropyl-5,6-dihydropyrrolo[3,4-d]imidazol-4(1H)-one], the GI50 in assay [1] is 79.4 nM; in assay [3], 349 nM; in assay [5] it was 36.4 nM. In assay [1], the “THP-1 TGI” value came out at 125 nM. For the same compound, the results for the IC50 in assay [2], in assay [4] and in assay [6] were 37 nM, 45 nM and 47 nM, respectively. In addition, the “K-562 TGI” value in assay [3] was greater than 10000 nM. The “MV-4-11 TGI” value in assay [5] amounted to 59.9 nM.
Turning to `Cc1cc(N2C(=O)c3nc(-c4cccnc4F)n(C)c3C2c2ccc(Cl)cc2)cn(C)c1=O` (stereo not shown) [Example 32, 6-(4-chlorophenyl)-5-(1,5-dimethyl-6-oxo-1,6-dihydropyridin-3-yl)-2-(2-fluoropyridin-3-yl)-1-methyl-5,6-dihydropyrrolo[3,4-d]imidazol-4(1H)-one], the IC50 was 130 nM in assay [2], 180 nM in assay [4] and 170 nM in assay [6].
With `Cc1cc(N2C(=O)c3nc(C4CC4)n(C(C)(C)C)c3C2c2ccc(Cl)cc2)cn(C)c1=O` (stereo not shown) [Example 33, 1-(tert-butyl)-6-(4-chlorophenyl)-2-cyclopropyl-5-(1,5-dimethyl-6-oxo-1,6-dihydropyridin-3-yl)-5,6-dihydropyrrolo[3,4-d]imidazol-4(1H)-one], the IC50 in assay [2] was determined as 66 nM; in assay [4], 65 nM; in assay [7] it was 510 nM; in assay [6] it was 100 nM.
Take `COc1ncccc1-c1nc2c(n1C(C)C)[C@@H](c1ccc(Cl)cc1)N(c1cc(C)c3nnn(C)c3c1)C2=O` [Example 112, (R)-6-(4-chlorophenyl)-5-(1,4-dimethyl-1H-benzo[d][1,2,3]triazol-6-yl)-1-isopropyl-2-(2-methoxypyridin-3-yl)-5,6-dihydropyrrolo[3,4-d]imidazol-4(1H)-one]: the GI50 in assay [1] was found to be 4.79 nM; in assay [3] it was 17.2 nM; in assay [5], 1.72 nM. Further, the “THP-1 TGI” value in assay [1] worked out at 9.84 nM. Also, the figures for the IC50 in assay [2], in assay [4] and in assay [6] were less than 11 nM, 13 nM and less than 11 nM, respectively. Besides, the “K-562 TGI” value in assay [3] is greater than 10000 nM. In addition, the “MV-4-11 TGI” value in assay [5] was 4.61 nM.
